Measurements from US20250129102A1, “CRYSTAL FORM OF PYRIMIDINE HETEROCYCLIC COMPOUND AND PREPARATION METHOD THEREFOR” (D3 Bio (Wuxi) Co., Ltd., priority 2021, published 2025).

Assays:
[1] = In vitro stability in liver microsomes, cynomolgus monkeys; format: in vitro ADME; settings: cynomolgus monkey, 0.5 mg/mL
Protocol: (§1) Metabolic stabilities of the assay compound in liver microsomes of CD-1 mice, SD rats, beagle dogs, cynomolgus monkeys, and human were assayed, respectively.
(§2) Two 96-well incubation plates were prepared and named T60 incubation plate and NCF60 incubation plate, respectively. 445 μL of microsomal working solutions (liver microsomal protein concentration of 0.56 mg/mL) were added to the T60 incubation plate and the NCF60 incubation plate, respectively, and then the above incubation plates were pre-incubated in a 37° C. water bath for about 10 minutes.
(§3) After the pre-incubation, 5 μL of working solutions of the assay sample or the control compound were added to the T60 incubation plate and the NCF60 incubation plate, respectively, and the mixture was mixed well. 50 μL of potassium phosphate buffer was added to each well of the NCF60 incubation plate to initiate the reaction. 180 μL of stop solution (200 ng/mL tolbutamide and 200 ng/mL labetalol in acetonitrile) and 6 uL of NADPH regeneration system working solution were added to the T0 stop plate, and 54 μL of sample was transferred from T60 incubation plate to T0 stop plate (generation of T0 sample). The reaction was initiated by adding 44 μL of NADPH regeneration system working solution to each well of the T60 incubation plate. Only 54 μL of microsome working solution, 6 uL of NADPH regeneration system working solution and 180 μL of stop solution were added to the Blank plate. Therefore, in samples of the assay compound or the control compound, the final reaction concentration of compound, testosterone, diclofenac and propafenone was 1 μM, the concentration of liver microsomes was 0.5 mg/mL, and the final reaction concentrations of DMSO and acetonitrile in the reaction system were 0.01% (v/v) and 0.99% (v/v), respectively. […] All samples were injected and analyzed by liquid chromatography-tandem mass spectrometry.

[2] = Body weight and tolerance in the Mia PaCa-2 tumor model; format: in vivo; settings: each dose group (10 and 30 mg/kg PO QD × 22)
Protocol: Assay on pharmacodynamics in vivo in a subcutaneously transplanted tumor model of human pancreatic cancer Mia PaCa-2 cells in Balb/c Nude mice
Cell inoculation: 0.2 mL (5×10^6 cells/mouse) of Mia PaCa-2 cells (plus Matrigel, 1:1 by volume) were subcutaneously inoculated into the right back of each mouse. When the average tumor volume reached 190 mm^3, mice were randomized into groups based on tumor volume and administration was initiated according to the protocol in Table 15.

[3] = Metabolic stability in hepatocytes, CD-1 mice; format: in vitro ADME; settings: mouse, cryopreserved hepatocytes, CD-1 mice hepatocytes
Protocol: Metabolic stabilities of assay compound in hepatocytes of CD-1 mice, SD rats, beagle dogs, cynomolgus monkeys, and human were assayed, respectively.
Several 96-well sample precipitation plates were prepared and named T0, T15, T30, T60, T90, T120, T0-MC, T120-MC and blank substrates, respectively. The recovery medium and incubation medium were taken out in advance and placed in a 37° C. water bath for pre-heating. Cryopreserved hepatocytes were removed from the liquid nitrogen tank and immediately immersed in a 37° C. water bath (approximately 90 seconds). After the cryopreserved hepatocytes had thawed and loosened, they were poured into a centrifuge tube containing 40 mL of recovery medium, and the tube was gently inverted to allow the cells to be resuspended in the recovery medium. The cells were centrifuged at 100×g at room temperature for 5 min, and the supernatant was removed. The hepatocytes were resuspended in an appropriate volume of incubation medium, and the cell viability was calculated by Trypan Blue staining method. 198 μL of hepatocyte suspension (0.51×10^6 cells/mL) was added to the preheated incubation plate. For the culture medium control group, 198 μL of hepatocyte-free incubation medium was added to T0-MC and T120-MC incubation plate. All incubation plates were pre-incubated in a 37° C. incubator for 10 minutes. Then 2 μL of working solutions of the assay sample and the control compound were added, respectively, and the mixture was mixed well. The incubation plate was immediately put into the shaker in the incubator, and the reaction was initiated while starting the timer. For each time point of each compound, 2 duplicate samples were prepared. The incubation conditions were 37° C., saturated humidity, and 5% CO2. […] All samples were mixed well and analyzed by LC/MS/MS.

[4] = Protein binding rate in plasma by equilibrium dialysis, CD-1 mice; format: in vitro ADME
Protocol: Protein binding rate of the assay compound in plasma of CD-1 mice, SD rats, beagle dogs, cynomolgus monkeys and human was determined by equilibrium dialysis.
Plasma samples with a compound concentration of 2 μM were prepared using plasma of the above five species, placed in a 96-well equilibrium dialysis device, and dialyzed with phosphate buffer solution at 37±1° C. for 4 hours. Warfarin was used as the control compound in this assay. The concentrations of the assay compound in plasma and dialysis buffer were determined by LC-MS/MS method.

[5] = In vitro stability in liver microsomes, beagle dogs; format: in vitro ADME; settings: dog, 0.5 mg/mL
Protocol: as §1, §2, §3

C=C(F)C(=O)N1CCN(c2nc(OC[C@@]34CCCN3C[C@H](F)C4)nc3c2CO[C@H](c2c(F)c(N)cc(C)c2C(F)(F)F)C3)C[C@@H]1CC#N [Compound of formula (I)]
CLint scaled at 1 μM [1]: 303 mL/min/kg
half-life at 1 μM [1]: 6.2 min
microsomal CLint at 1 μM ([1]; read-out: CLint(hep)): 225 µL/min/mg
body weight of mice [2]: stable
tolerance [2]: no obvious intolerance
half-life at 1 μM [3]: 9.5 min
hepatocyte CLint at 1 μM ([3]; read-out: CLint(hep)): 146 µL/min/1e6 cells
CLint scaled at 1 μM ([3]; read-out: CLint(liver)): 1740 mL/min/kg
fraction unbound at 4 h, 2 μM ([4]; CD-1, plasma, value used in the CD mouse PK table, read-out: Plasma protein unbound rate PPB (Unbound %)): 0.12
Protein unbound rate (%) ([4]; CD-1 mice plasma, 2 μM, equilibrium dialysis 4 hours): 1.5%
CLint scaled at 1 μM [5]: < 13.8 mL/min/kg
half-life at 1 μM [5]: > 145 min
microsomal CLint at 1 μM ([5]; read-out: CLint(hep)): < 9.6 µL/min/mg
